Patent publication US5977088A (priority 1995, dated 1999)
Entries after “also recorded” stand apart in the source; their conditions may differ. Where a name gives a salt, the structure may show the parent alone. Read-outs that look alike come from different tables or passages of the source.

Experiments:
[1] = Topical treatment of back pain in a patient with kyphosis; details: applied to back in hyaluronic acid
[2] = Chronic conditions - evaluations of patients treated with […] hyaluronic acid with 3% diclofenac acid (HD); format: in vivo, human (patients); details: single patient
[3] = system: Fisher Bladder Carcinoma tumor tissue; details: rat, in vivo, iv
Experimental: (§1) Tumor (2 mm viable tumor fragment) was transplanted subcutaneously on the right frank by trocar
(§2) Treatment was started when tumor size is about 1.5 cm.(2 weeks after implantation.) . . . tumor weight: 1.0+0.3 g
(§3) The drug was administered Intravenously (through the penile vein)
(§4) Group A: 5-FU 20 mg/kg (3H-5-FU30 μCi)+saline
(§5) Tumor was surgically removed (and blood was collected) at *predeterminated time after drug administration. Tumor weight was measured (and blood was centrifuged to obtain a plasma sample.)
(§6) *15 min, 60 min, 3 hr, 4 hrs, . . . after drug administration . . . .
(§7) Radioactivity level in tumor tissue was counted, using a liquid scintillation counter.

[4] = Toxicity of indomethacin solubilized in n-methyl glucamine with hyaluronic acid in animals; format: in vivo
Experimental: As a major amount of soluble indomethacin may be incorporated into the formulation, or composition, the indomethacin may be solubilized using n-methyl glucamine at a dilution of 5 mg/ml of n-methyl glucamine (NMG). This substance is then passed through a […] Milipore filter to produce sterility. […] The solution of indomethacin and NMG may be mixed with, for example, "LifeCore™" hyaluronic acid in dosage amounts discussed above. This produces an appropriate mixture and can be administered safely.

[5] = human, in vivo
[6] = system: Fisher Bladder Carcinoma tumor tissue; experiment: Intratumour injection study, radioactivity in tumor tissue; format: in vivo, Fisher 344 rat; details: intratumor injection; 1 h, 6 h
Experimental: Animal: Fisher 344 rat, male 200-250g b. […] These drugs were administrated by intratumor injection. […] At the same time, injection into normal skin (on the left frank) was carried out similarly.

[7] = Intratumour injection study, radioactivity in normal skin; format: in vivo, Fisher 344 rat; details: injection into normal skin; 1 h, 6 h
Experimental: Animal: Fisher 344 rat, male 200-250g At the same time, injection into normal skin (left frank) was carried out similarly. […] At the same time, injection into normal skin (on the left frank) was carried out similarly.

[8] = Intravenous injection, radioactivity in liver; format: in vivo, Fisher 344 rat; design: unit not given beside the values; details: mean ± S.E.
[9] = system: Fisher Bladder Carcinoma tumor tissue; experiment: Intravenous injection, radioactivity in tumor tissue; details: mean ± S.E., FIG. 5 plots CPM
Experimental: as §1, §2, §3, §4, §5, §6, §7

[10] = monkey, in vivo; cited from earlier work
psoriasis = experiment: Topical treatment of a patient with psoriasis; format: in vivo, human (patient); details: carried in hyaluronic acid
Experimental: In another patient, a drug (methotrexate) was carried in hyaluronic acid and applied topically to a patient with psoriasis.

Compound: COc1ccc2cc([C@H](C)C(=O)O)ccc2c1 [naproxen]
- Side effects [1]: some side effects

Compound: O=C(OCC(O)CO)c1ccccc1Nc1ccnc2c(C(F)(F)F)cccc12 (centres unmarked) [Idarac]
- Comments on outcome (in words) [2]: poor response

Compound: hyaluronic acid
- Radioactivity in tumor tissue (in words) [3]: can enhance 5-FU uptake in tumor tissue

Compound: COc1ccc2c(c1)c(CC(=O)O)c(C)n2C(=O)c1ccc(Cl)cc1 [indomethacin]
- Multiple of the therapeutic dose that is non-toxic in animals [4]: 16 fold
- Side effects [1]: some side effects

Compound: O=C(c1ccccc1)c1ccc2n1CCC2C(=O)O (racemic) [Toradol™, (+/-) tromethamine salt of ketorolac]
- Side effects [5]: there were no side effects
- Back pain [1]: the back pain eased and disappeared for some time

Compound: CN1C(C(=O)Nc2ccccn2)=C(O)c2ccccc2S1(=O)=O [piroxicam]
- Comments on outcome (in words) [2]: nega-; also recorded: poor relief

Compound: O=c1[nH]cc(F)c(=O)[nH]1 [Formulation 5-FU, 5-Fluoracil]
- Radioactivity retention in tumor tissue (in words) [6]: radioactivity immediately disappeared from the tumor or the normal tissue
- Radioactivity clearance in normal tissue (skin) (in words) [7]: radioactivity immediately disappeared from the tumor or the normal tissue
- Radioactivity in liver ([8]; 15 min after i.v.): 18680 ± 625
- Radioactivity in liver ([8]; 60 min after i.v.): 5451 ± 841
- Radioactivity in liver ([8]; 3 hrs after i.v.): 2230 ± 449
- Radioactivity in liver ([8]; 5 hrs after i.v.): 1129 ± 70
- Radioactivity in tumor ([9]; 15 min after i.v.): 2810 ± 165
- Radioactivity in tumor ([9]; 60 min after i.v.): 1751 ± 149
- Radioactivity in tumor ([9]; 3 hrs after i.v.): 1493 ± 227
- Radioactivity in tumor ([9]; 5 hrs after i.v.): 853 ± 129

Compound: sodium hyaluronate
- Cellular infiltration of the vitreous and anterior chamber, flare, haze, pathological changes [10]: no significant cellular infiltration of the vitreous and anterior chamber, no flare in the aqueous humour, no haze or flare in the vitreous, and no pathological changes

Compound: CN(Cc1cnc2nc(N)nc(N)c2n1)c1ccc(C(=O)N[C@@H](CCC(=O)O)C(=O)O)cc1 [methotrexate]
- Response of psoriasis (psoriasis): the psoriasis cleared
